*1 amine or outer side, *2 acyl side, *3 side chain or, on linkers, in order; H or OH if unused. Where a SMILES comes first, the peptide text is derived from it. Bridges are numbered along the chain shown (N, C = ends). [ ]: non-standard residue; d: D form. The star is where a group is joined. X25 = O=C([C@H](Cc1ccc(C(F)(F)F)cc1)N(CCC(F)(F)F)[*:1])[*:2]; hPhe(3-Cl-4-CF3) = N[C@@H](CCc1ccc(C(F)(F)F)c(Cl)c1)C(=O)O; X31 = COCCCN([C@@H](Cc1ccc(C(F)(F)F)cc1)C(=O)[*:2])[*:1]; X32 = COCCN([C@@H](Cc1ccc(C(F)(F)F)cc1)C(=O)[*:2])[*:1]; NPrPhe(4-CF3) = CCCN[C@@H](Cc1ccc(C(F)(F)F)cc1)C(=O)O; X30 = C=CCCN([C@@H](Cc1ccc(C)cc1)C(=O)[*:2])[*:1]; X10 = C=CCN([C@@H](Cc1ccc(C)cc1)C(=O)[*:2])[*:1]; X16 = CCCN([C@@H](Cc1ccc(OC)cc1)C(=O)[*:2])[*:1]; NPrPhe(4-Me) = CCCN[C@@H](Cc1ccc(C)cc1)C(=O)O; NMeGly(cPent) = CN[C@H](C(=O)O)C1CCCC1; Aze(3S-Me) = C[C@H]1CN[C@@H]1C(=O)O; NMeAllylGly = C=CC[C@H](NC)C(=O)O; NMeD = CN[C@@H](CC(=O)O)C(=O)O; NMeL = CN[C@@H](CC(C)C)C(=O)O; Morpholide = C1CN(*)CCO1; NMeA = CN[C@@H](C)C(=O)O; Ac5c = NC1(C(=O)O)CCCC1; Aze = O=C(O)[C@@H]1CCN1; NEtG = CCNCC(=O)O; Sar = CNCC(=O)O
What was measured:
[1] = target: GDP-bound KRAS wild-type protein (Homo sapiens, UniProt P01116); test: Binding to KRAS by surface plasmon resonance (SPR), Single Cycle Kinetics; conditions: SPR Single Cycle Kinetics, GDP-bound KRAS wild-type protein, 1:1 binding model; read-out: KRAS KD
Chain of GDP-bound KRAS wild-type protein (P01116 whole entry): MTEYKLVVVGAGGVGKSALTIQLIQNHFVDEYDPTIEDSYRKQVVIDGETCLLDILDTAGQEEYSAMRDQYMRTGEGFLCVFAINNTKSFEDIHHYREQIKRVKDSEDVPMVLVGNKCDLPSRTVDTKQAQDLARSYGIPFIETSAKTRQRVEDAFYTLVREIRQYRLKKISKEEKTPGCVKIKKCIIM

[2] = target: GDP-bound NRAS wild-type protein (Homo sapiens, UniProt P01111); test: Binding to NRAS by surface plasmon resonance (SPR), Single Cycle Kinetics; conditions: SPR, GDP-bound NRAS wild-type protein vs GDP-bound KRAS wild-type protein
Chain of GDP-bound NRAS wild-type protein (P01111 whole entry): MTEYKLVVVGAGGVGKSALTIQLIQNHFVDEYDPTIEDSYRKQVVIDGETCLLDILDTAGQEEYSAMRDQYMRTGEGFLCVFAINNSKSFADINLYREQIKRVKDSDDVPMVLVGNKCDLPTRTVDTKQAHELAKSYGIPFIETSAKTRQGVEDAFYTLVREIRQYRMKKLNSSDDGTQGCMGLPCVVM

[3] = target: GDP-bound HRAS wild-type protein (Homo sapiens, UniProt P01112); test: Binding to HRAS by surface plasmon resonance (SPR), Single Cycle Kinetics; conditions: SPR, GDP-bound HRAS wild-type protein vs GDP-bound KRAS wild-type protein
Chain of GDP-bound HRAS wild-type protein (P01112 whole entry): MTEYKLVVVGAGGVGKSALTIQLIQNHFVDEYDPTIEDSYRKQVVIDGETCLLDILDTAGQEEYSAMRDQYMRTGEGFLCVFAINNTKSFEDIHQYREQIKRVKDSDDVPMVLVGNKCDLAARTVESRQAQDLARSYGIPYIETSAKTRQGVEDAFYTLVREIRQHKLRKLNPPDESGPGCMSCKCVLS

Structure (SMILES) | Kd [1] [nM] | NRAS/KRAS (ratio of KD value for NRAS to KD value for KRAS) [2] | HRAS/KRAS (ratio of KD value for HRAS to KD value for KRAS) [3]
CC[C@H](C)[C@@H]1NC(=O)[C@H](CC(C)C)N(C)C(=O)C[C@@H](C(=O)N2CCOCC2)N(C)C(=O)[C@H](C2CCCC2)N(C)C(=O)C2(CCCC2)NC(=O)[C@@H]2CCCN2C(=O)[C@H](CCc2ccc(C(F)(F)F)c(Cl)c2)NC(=O)CN(C)C(=O)[C@H](Cc2ccc(C(F)(F)F)cc2)N(CCC(F)(F)F)C(=O)CN(C)C(=O)CN(C)C1=O [PP0131] ([NMeL]I[Sar][Sar][X25][Sar][hPhe(3-Cl-4-CF3)]P[Ac5c][NMeGly(cPent)][NMeD]-Morpholide; lactam N-11) | 0.14 | B (a compound having 3 or more and less than 10 is denoted as B) | C (A compound having a KD ratio of 0.1 or more and less than 3 is denoted as C)
CC[C@H](C)[C@@H]1NC(=O)[C@H](CC(C)C)N(C)C(=O)C[C@@H](C(=O)N2CCOCC2)N(C)C(=O)[C@H](C2CCCC2)N(C)C(=O)C2(CCCC2)NC(=O)[C@@H]2CCCN2C(=O)[C@H](CCc2ccc(C(F)(F)F)c(Cl)c2)NC(=O)CN(C)C(=O)[C@H](Cc2ccc(C(F)(F)F)cc2)N(CCOC)C(=O)CN(C)C(=O)CN(C)C1=O [PP0132] ([NMeL]I[Sar][Sar][X32][Sar][hPhe(3-Cl-4-CF3)]P[Ac5c][NMeGly(cPent)][NMeD]-Morpholide; lactam N-11) | 0.2 | C (A compound having a KD ratio of 0.1 or more and less than 3 is denoted as C) | C (A compound having a KD ratio of 0.1 or more and less than 3 is denoted as C)
CC[C@H](C)[C@@H]1NC(=O)[C@H](CC(C)C)N(C)C(=O)C[C@@H](C(=O)N2CCOCC2)N(C)C(=O)[C@H](C2CCCC2)N(C)C(=O)C2(CCCC2)NC(=O)[C@@H]2CCCN2C(=O)[C@H](CCc2ccc(C(F)(F)F)c(Cl)c2)NC(=O)CN(C)C(=O)[C@H](Cc2ccc(C(F)(F)F)cc2)N(CCCOC)C(=O)CN(C)C(=O)CN(C)C1=O [PP0133] ([NMeL]I[Sar][Sar][X31][Sar][hPhe(3-Cl-4-CF3)]P[Ac5c][NMeGly(cPent)][NMeD]-Morpholide; lactam N-11) | 0.08 | B (a compound having 3 or more and less than 10 is denoted as B) | C (A compound having a KD ratio of 0.1 or more and less than 3 is denoted as C)
CCCN1C(=O)[C@@H]2CCN2C(=O)[C@H](C)N(C)C(=O)[C@H]([C@@H](C)CC)NC(=O)[C@H](CC(C)C)N(C)C(=O)C[C@@H](C(=O)N2CCOCC2)N(C)C(=O)[C@H](C2CCCC2)N(C)C(=O)C2(CCCC2)NC(=O)[C@@H]2CCCN2C(=O)[C@H](CCc2ccc(C(F)(F)F)c(Cl)c2)NC(=O)CN(C)C(=O)[C@@H]1Cc1ccc(OC)cc1 [PP0134] ([NMeL]I[NMeA][Aze][X16][Sar][hPhe(3-Cl-4-CF3)]P[Ac5c][NMeGly(cPent)][NMeD]-Morpholide; lactam N-11) | 0.66 | C (A compound having a KD ratio of 0.1 or more and less than 3 is denoted as C) | B (a compound having 3 or more and less than 10 is denoted as B)
CCCN1C(=O)CN(C)C(=O)CN(C)C(=O)[C@H]([C@@H](C)CC)NC(=O)[C@H](CC(C)C)N(C)C(=O)C[C@@H](C(=O)N2CCOCC2)N(C)C(=O)[C@H](C2CCCC2)N(C)C(=O)C2(CCCC2)NC(=O)[C@@H]2CCCN2C(=O)[C@H](CCc2ccc(C(F)(F)F)c(Cl)c2)NC(=O)CN(C)C(=O)[C@@H]1Cc1ccc(OC)cc1 [PP0135] ([NMeL]I[Sar][Sar][X16][Sar][hPhe(3-Cl-4-CF3)]P[Ac5c][NMeGly(cPent)][NMeD]-Morpholide; lactam N-11) | 0.75 | B (a compound having 3 or more and less than 10 is denoted as B) | C (A compound having a KD ratio of 0.1 or more and less than 3 is denoted as C)
CCCN1C(=O)[C@@H]2[C@@H](C)CN2C(=O)[C@H](C)N(C)C(=O)[C@H]([C@@H](C)CC)NC(=O)[C@H](CC(C)C)N(C)C(=O)C[C@@H](C(=O)N2CCOCC2)N(C)C(=O)[C@H](C2CCCC2)N(C)C(=O)C2(CCCC2)NC(=O)[C@@H]2CCCN2C(=O)[C@H](CCc2ccc(C(F)(F)F)c(Cl)c2)NC(=O)CN(C)C(=O)[C@@H]1Cc1ccc(C)cc1 [PP0138] ([NMeL]I[NMeA][Aze(3S-Me)][NPrPhe(4-Me)][Sar][hPhe(3-Cl-4-CF3)]P[Ac5c][NMeGly(cPent)][NMeD]-Morpholide; lactam N-11) | 0.77 | C (A compound having a KD ratio of 0.1 or more and less than 3 is denoted as C) | C (A compound having a KD ratio of 0.1 or more and less than 3 is denoted as C)
C=CC[C@H]1C(=O)N(CC=C)[C@@H](Cc2ccc(C)cc2)C(=O)N(C)CC(=O)N[C@@H](CCc2ccc(C(F)(F)F)c(Cl)c2)C(=O)N2CCC[C@H]2C(=O)NC2(CCCC2)C(=O)N(C)[C@@H](C2CCCC2)C(=O)N(C)[C@H](C(=O)N2CCOCC2)CC(=O)N(C)[C@@H](CC(C)C)C(=O)N[C@@H]([C@@H](C)CC)C(=O)N(C)CC(=O)N1C [PP0139] ([NMeL]I[Sar][NMeAllylGly][X10][Sar][hPhe(3-Cl-4-CF3)]P[Ac5c][NMeGly(cPent)][NMeD]-Morpholide; lactam N-11) | 230 | C (A compound having a KD ratio of 0.1 or more and less than 3 is denoted as C) | C (A compound having a KD ratio of 0.1 or more and less than 3 is denoted as C)
C=CCCN1C(=O)[C@H](CC=C)N(C)C(=O)CN(C)C(=O)[C@H]([C@@H](C)CC)NC(=O)[C@H](CC(C)C)N(C)C(=O)C[C@@H](C(=O)N2CCOCC2)N(C)C(=O)[C@H](C2CCCC2)N(C)C(=O)C2(CCCC2)NC(=O)[C@@H]2CCCN2C(=O)[C@H](CCc2ccc(C(F)(F)F)c(Cl)c2)NC(=O)CN(C)C(=O)[C@@H]1Cc1ccc(C)cc1 [PP0140] ([NMeL]I[Sar][NMeAllylGly][X30][Sar][hPhe(3-Cl-4-CF3)]P[Ac5c][NMeGly(cPent)][NMeD]-Morpholide; lactam N-11) | 800 | C (A compound having a KD ratio of 0.1 or more and less than 3 is denoted as C) | B (a compound having 3 or more and less than 10 is denoted as B)

Now from value to compound, other results behind:

Kd [1] [nM] | Structure (SMILES) | NRAS/KRAS (ratio of KD value for NRAS to KD value for KRAS) [2] | HRAS/KRAS (ratio of KD value for HRAS to KD value for KRAS) [3]
0.55 | CCCN1C(=O)[C@@H]2[C@@H](C)CN2C(=O)[C@H](C)N(C)C(=O)[C@H]([C@@H](C)CC)NC(=O)[C@H](CC(C)C)N(C)C(=O)C[C@@H](C(=O)N2CCOCC2)N(C)C(=O)[C@H](C2CCCC2)N(C)C(=O)C2(CCCC2)NC(=O)[C@@H]2CCCN2C(=O)[C@H](CCc2ccc(C(F)(F)F)c(Cl)c2)NC(=O)CN(C)C(=O)[C@@H]1Cc1ccc(C(F)(F)F)cc1 [PP0141] ([NMeL]I[NMeA][Aze(3S-Me)][NPrPhe(4-CF3)][Sar][hPhe(3-Cl-4-CF3)]P[Ac5c][NMeGly(cPent)][NMeD]-Morpholide; lactam N-11) | C (A compound having a KD ratio of 0.1 or more and less than 3 is denoted as C) | B (a compound having 3 or more and less than 10 is denoted as B)
0.24 | CCCN1C(=O)CN(C)C(=O)CN(C)C(=O)[C@H]([C@@H](C)CC)NC(=O)[C@H](CC(C)C)N(C)C(=O)C[C@@H](C(=O)N2CCOCC2)N(C)C(=O)[C@H](C2CCCC2)N(C)C(=O)C2(CCCC2)NC(=O)CN(CC)C(=O)[C@H](CCc2ccc(C(F)(F)F)c(Cl)c2)NC(=O)CN(C)C(=O)[C@@H]1Cc1ccc(C(F)(F)F)cc1 [PP0144] ([NMeL]I[Sar][Sar][NPrPhe(4-CF3)][Sar][hPhe(3-Cl-4-CF3)][NEtG][Ac5c][NMeGly(cPent)][NMeD]-Morpholide; lactam N-11) | B (a compound having 3 or more and less than 10 is denoted as B) | C (A compound having a KD ratio of 0.1 or more and less than 3 is denoted as C)
0.5 | CCCN1C(=O)CN(C)C(=O)CN(CC)C(=O)[C@H]([C@@H](C)CC)NC(=O)[C@H](CC(C)C)N(C)C(=O)C[C@@H](C(=O)N2CCOCC2)N(C)C(=O)[C@H](C2CCCC2)N(C)C(=O)C2(CCCC2)NC(=O)[C@@H]2CCCN2C(=O)[C@H](CCc2ccc(C(F)(F)F)c(Cl)c2)NC(=O)CN(C)C(=O)[C@@H]1Cc1ccc(C(F)(F)F)cc1 [PP0145] ([NMeL]I[NEtG][Sar][NPrPhe(4-CF3)][Sar][hPhe(3-Cl-4-CF3)]P[Ac5c][NMeGly(cPent)][NMeD]-Morpholide; lactam N-11) | B (a compound having 3 or more and less than 10 is denoted as B) | B (a compound having 3 or more and less than 10 is denoted as B)
0.42 | CCCN1C(=O)CN(C)C(=O)CN(C)C(=O)[C@H]([C@@H](C)CC)NC(=O)[C@H](CC(C)C)N(C)C(=O)C[C@@H](C(=O)N2CCOCC2)NC(=O)[C@H](C2CCCC2)N(C)C(=O)C2(CCCC2)NC(=O)[C@@H]2CCCN2C(=O)[C@H](CCc2ccc(C(F)(F)F)c(Cl)c2)NC(=O)CN(C)C(=O)[C@@H]1Cc1ccc(C(F)(F)F)cc1 [PP0146] ([NMeL]I[Sar][Sar][NPrPhe(4-CF3)][Sar][hPhe(3-Cl-4-CF3)]P[Ac5c][NMeGly(cPent)]D-Morpholide; lactam N-11) | B (a compound having 3 or more and less than 10 is denoted as B) | B (a compound having 3 or more and less than 10 is denoted as B)

— US20240158446A1, “CYCLIC COMPOUND HAVING SELECTIVE INHIBITORY ACTION ON KRAS OVER HRAS AND NRAS” (CHUGAI SEIYAKU KABUSHIKI KAISHA, priority 2021, published 2024)
